Measured values from patent publication US6720346B2, “Thiazole benzamide derivatives and pharmaceutical compositions for inhibiting cell proliferation” (Agouron Pharmaceuticals, Inc., priority 2001, dated 2004).

Legend:
[1] = molecular target: T1, phosphorylated LCK kinase (Homo sapiens, UniProt P06239, C224D/P223M); test: Inhibition of phosphorylated LCK tyrosine kinase activity (coupled spectrophotometric assay); format: biochemical; conditions: read-out: P-LCK % Inhibition at 1 μM
T1 construct: starting from amino acid 223 to the end of the protein at amino acid 509; made in house; host or cells: insect cells
T1 sequence (P06239 223-509 P223M/C224D): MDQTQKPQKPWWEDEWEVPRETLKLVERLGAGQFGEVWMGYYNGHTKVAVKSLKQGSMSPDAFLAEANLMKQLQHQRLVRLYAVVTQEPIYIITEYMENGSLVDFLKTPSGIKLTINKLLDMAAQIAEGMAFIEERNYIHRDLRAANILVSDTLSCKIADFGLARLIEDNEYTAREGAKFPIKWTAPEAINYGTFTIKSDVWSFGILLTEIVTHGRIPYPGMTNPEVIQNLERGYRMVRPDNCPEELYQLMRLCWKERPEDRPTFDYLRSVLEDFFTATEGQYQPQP
Experimental: (§1) Cloning, expression and purification of the cytosolic domain of FGFR1 tyrosine kinase (amino acids 456-766) containing three amino acid substitutions (L457V, C488A, and C584S) were conducted as previously described (Mohammadi, M., Schiessinger, J., & Hubbard, S. R. Cell, 86, (1996) 577-587). This domain was expressed in Sf9 insect cells using a baculovirus expression vector, and protein was purified using conventional techniques. The LCK tyrosine kinase was expressed in insect cells as an N-terminal deletion starting from amino acid 223 to the end of the protein at amino acid 509. The N-terminus of the protein also had two amino acid substitutions, P223M and C224D. Kinases were purified using conventional chromatographic methods.
(§2) Tyrosine kinase activity was measured using a coupled, continuous spectrophotometric assay, in which production of phosphorylated poly(Glu,Tyr; 4:1) substrate and ADP is coupled to the pyruvate kinase-catalyzed transfer of a phosphate from phosphoenolpyruvate to ADP, with generation of pyruvate and regeneration of ATP. Pyruvate production is in turn coupled to the lactate dehydrogenase-catalyzed reduction of pyruvate to form lactate, with concomitant conversion of NADH to NAD^+. Loss of NADH is monitored by measuring absorbance at 340 nm (see e.g., Technikova-Dobrova et al., “Spectrophotometric Determination of Functional Characteristics of Protein Kinases with Coupled Enzymatic Assay,” FEBS Letters, 292 (1991), pp. 69-72). Enzyme activity was measured in the presence of 200 mM HEPES (pH 7.5), 2 mM phosphoenolpyruvate, 0.3 mM NADH, 20 mM MgCl2, 100 μM ATP, 5 mM DTT, 5.1 or 25 mM poly (Glu,Tyr) 4:1 for P-FGF or P-LCK assays, respectively, and 15 units/mL each of pyruvate kinase and lactate dehydrogenase. Phosphorylated FGF receptor kinase was present at 100 nM and phosphorylated LCK kinase was present at 50 nM. Assays were performed under initial rate conditions at 37° C., and rates were corrected for any background rate measured in the absence of enzyme. Percent inhibition was calculated relative to control enzyme assayed in the presence of 2% (v/v) DMSO.

[2] = molecular target: T2, Phosphorylated FGF receptor kinase (FGFR1 cytosolic domain) (Homo sapiens, UniProt P11362, C488A/C584S/L457V); test: Inhibition of phosphorylated FGF receptor tyrosine kinase activity (coupled spectrophotometric assay); format: biochemical; conditions: read-out: P-FGF % Inhibition at 1 μM
T2 construct: FGFR1 tyrosine kinase (amino acids 456-766); made in house; host or cells: Sf9 insect cells (baculovirus)
T2 sequence (P11362 456-766 L457V/C488A/C584S): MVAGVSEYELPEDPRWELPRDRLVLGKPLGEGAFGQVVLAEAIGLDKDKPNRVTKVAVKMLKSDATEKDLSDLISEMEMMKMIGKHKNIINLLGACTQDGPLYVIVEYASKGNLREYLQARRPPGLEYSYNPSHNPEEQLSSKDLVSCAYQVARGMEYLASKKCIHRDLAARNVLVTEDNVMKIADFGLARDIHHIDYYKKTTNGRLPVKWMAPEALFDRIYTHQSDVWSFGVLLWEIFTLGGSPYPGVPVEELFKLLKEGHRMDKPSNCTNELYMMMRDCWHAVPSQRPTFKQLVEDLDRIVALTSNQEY
Experimental: as §1, §2

[3] = molecular target: T3, human CDK4/cyclin D3 (Homo sapiens, UniProt P11802); test: Inhibition of CDK4/cyclin D retinoblastoma kinase activity (Ki; % inhibition); format: biochemical; conditions: for Ki: apparent Ki, CDK4/cyclin D3, Rb substrate; for CDK4 % Inhibition at 0.03 μM: 0.03 μM compound
T3 construct: made in house; host or cells: insect cells co-infected with baculovirus vectors
T3 sequence (P11802 whole entry): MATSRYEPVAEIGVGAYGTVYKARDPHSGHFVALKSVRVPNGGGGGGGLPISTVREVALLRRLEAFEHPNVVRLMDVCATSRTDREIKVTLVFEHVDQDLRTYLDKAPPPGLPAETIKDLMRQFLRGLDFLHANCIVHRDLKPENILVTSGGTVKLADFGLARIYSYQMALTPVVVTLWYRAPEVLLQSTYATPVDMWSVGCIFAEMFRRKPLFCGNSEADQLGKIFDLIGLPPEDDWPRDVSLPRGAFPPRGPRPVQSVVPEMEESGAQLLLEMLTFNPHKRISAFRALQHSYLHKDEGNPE
T3 sequence (P30281 1-264 partner limits assumed): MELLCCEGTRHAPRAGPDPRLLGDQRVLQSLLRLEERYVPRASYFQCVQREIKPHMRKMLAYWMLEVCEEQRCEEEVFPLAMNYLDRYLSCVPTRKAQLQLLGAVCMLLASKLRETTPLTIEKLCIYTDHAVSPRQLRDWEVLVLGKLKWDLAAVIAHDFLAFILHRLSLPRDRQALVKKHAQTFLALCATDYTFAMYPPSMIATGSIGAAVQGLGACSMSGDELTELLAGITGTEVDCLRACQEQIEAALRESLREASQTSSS
Outline: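 Insect-cell-expressed CDK4 with truncated cyclin D3 (1-264), 5 nM, phosphorylating His-tagged Rb fragment (386-928) with 25 μM [32/33P]ATP at pH 7.4, 30 °C, 20 min (60 min for tight binders). Filter capture, phosphorimager read; % inhibition at 30 nM compound, Ki from competitive or tight-binding fits.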

[4] = molecular target: T4, CDK2/cyclin A (Homo sapiens, UniProt P24941); test: Inhibition of CDK2/cyclin A retinoblastoma kinase activity (Ki; % inhibition); format: biochemical; conditions: for Ki: apparent Ki, CDK2/cyclin A, Rb substrate; for CDK2 % Inhibition at 0.03 μM: 0.03 μM compound
T4 construct: made in house; host or cells: CDK2: insect cells (baculovirus); cyclin A: E. coli
Outline: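 Radiometric filter assay of CDK2/proteolyzed cyclin A (baculovirus-expressed human CDK2, 10 or 19 nM) phosphorylating an Rb fragment with 25 μM [³²P/³³P]ATP in pH 7.4 HEPES, 2% DMSO, at 30 °C for 60 or 75 min under initial-rate conditions. Library compounds screened at 30 nM for % inhibition; apparent Ki from concentration series fit to competitive or tight-binding inhibition equations.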

[5] = test system: HCT-116 cell line; test: Inhibition of cell growth, MTT tetrazolium salt assay; format: cell-based; conditions: for IC50: Homo sapiens, HCT-116, 120 h, MTT, three to five days; for HCT-116 % Inhibition at 0.1 μM / HCT-116 % Inhibition at 0.25 μM: HCT-116 cells; for HCT-116 % Inhibition at 0.1 μM: 0.1 μM compound; for HCT-116 % Inhibition at 0.25 μM: 0.25 μM compound
Outline: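 Cells in McCoy's 5A medium were given 4 h before compound addition in 0.5% (v/v) DMSO, then incubated 3–5 days at 37 °C, 5% CO2. After 4 h with 0.2 mg/mL MTT, DMSO-solubilized formazan was read at 540 nm; 50% and 90% growth-inhibitory concentrations came from semi-log plots against vehicle controls.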

Row | CDK4 % Inhibition at 0.03 μM [3] | CDK2 % Inhibition at 0.03 μM [4] | SMILES | HCT-116 % Inhibition at 0.1 μM [5] | HCT-116 % Inhibition at 0.25 μM [5] | further results
1 | 11% | 10% | CN(CCC1OCCO1)C(=O)c1ccc(Nc2nc(N)c(C(=O)c3c(F)cccc3F)s2)cc1 [Example G387] | 32% | 52% | –
2 | 4% | −12% | CC(C)c1cccc(NC(=O)c2ccc(Nc3nc(N)c(C(=O)c4c(F)cccc4F)s3)cc2)c1 [Example G389] | 11% | 61% | –
3 | 2% | −14% | Nc1nc(Nc2ccc(C(=O)N3CCC(CO)CC3)cc2)sc1C(=O)c1c(F)cccc1F [Example G390] | 10% | 40% | –
4 | 0% | 8% | Cc1cc(NC(=O)c2ccc(Nc3nc(N)c(C(=O)c4c(F)cccc4F)s3)cc2)no1 [Example G393] | 8% | 46% | –
5 | 15% | 17% | Nc1nc(Nc2ccc(C(=O)N3CCN(CCc4cccs4)CC3)cc2)sc1C(=O)c1c(F)cccc1F [Example G395] | 19% | 48% | –
6 | 9% | −6% | Cc1ccc(O)c(NC(=O)c2ccc(Nc3nc(N)c(C(=O)c4c(F)cccc4F)s3)cc2)c1 [Example G396] | 14% | 67% | –

The remaining lines, values behind:

Row | SMILES | CDK4 % Inhibition at 0.03 μM [3] | CDK2 % Inhibition at 0.03 μM [4] | HCT-116 % Inhibition at 0.1 μM [5] | HCT-116 % Inhibition at 0.25 μM [5] | further results
7 | Nc1nc(Nc2ccc(C(=O)NCCNc3ccccc3)cc2)sc1C(=O)c1c(F)cccc1F [Example A2, 4-[4-Amino-5-(2,6-difluoro-benzoyl)-thiazol-2-ylamino]-N-(2-phenylamino-ethyl)-benzamide] | – | – | – | – | inhibition at 1 µM [1]: 4%; inhibition at 1 µM [2]: 8%; Ki [3]: 8 nM; Ki [4]: 3.2 nM; IC50 [5]: 140 nM
8 | CN(C)CCN(C)C(=O)c1ccc(Nc2nc(N)c(C(=O)c3c(F)cccc3F)s2)cc1 [Example A3, 4-[4-Amino-5-(2,6-difluoro-benzoyl)-thiazol-2-ylamino]-N-(2-dimethylamino-ethyl)-N-methyl-benzamide] | – | – | – | – | inhibition at 1 µM [1]: 5%; inhibition at 1 µM [2]: 7%; Ki [3]: 21 nM; Ki [4]: 170 nM; IC50 [5]: 750 nM
9 | CC(CCCC(C)(C)O)NC(=O)c1ccc(Nc2nc(N)c(C(=O)c3c(F)cccc3F)s2)cc1 (stereo not drawn) [Example A5, 4-[4-Amino-5-(2,6-difluoro-benzoyl)-thiazol-2-ylamino]-N-(6-hydroxy-6-methyl-hept-2-yl)-benzamide] | – | – | – | – | inhibition at 1 µM [1]: 3%; inhibition at 1 µM [2]: 5%; Ki [3]: 66 nM; Ki [4]: 72 nM; IC50 [5]: 1200 nM
10 | Nc1nc(Nc2ccc(C(=O)Nc3ccccc3)cc2)sc1C(=O)c1c(F)cccc1F [Example A9, 4-[4-Amino-5-(2,6-difluoro-benzoyl)-thiazol-2-ylamino]-N-phenyl-benzamide] | – | – | – | – | inhibition at 1 µM [1]: 5%; inhibition at 1 µM [2]: 5%; Ki [3]: 12 nM; Ki [4]: 27 nM; IC50 [5]: 140 nM
11 | CCN1CCCC1CNC(=O)c1ccc(Nc2nc(N)c(C(=O)c3c(F)cccc3F)s2)cc1 (stereo not drawn) [Example A11, 4-[4-Amino-5-(2,6-difluoro-benzoyl)-2-ylamino]-N-(1-ethyl-pyrrolidin-2RS-ylmethyl)-benzamide] | – | – | – | – | inhibition at 1 µM [1]: 6%; Ki [3]: 14 nM; Ki [4]: 82 nM; IC50 [5]: 170 nM
12 | CN(C)CCN1CCN(C(=O)c2ccc(Nc3nc(N)c(C(=O)c4c(F)cccc4F)s3)cc2)CC1 [Example G382] | 8% | −17% | 17% | 47% | –
13 | Nc1nc(Nc2ccc(C(=O)NC(CO)CSCc3ccccc3)cc2)sc1C(=O)c1c(F)cccc1F (stereo not drawn) [Example G383] | −10% | 15% | 33% | 51% | –
14 | Nc1ccccc1CNC(=O)c1ccc(Nc2nc(N)c(C(=O)c3c(F)cccc3F)s2)cc1 [Example G384] | 23% | 45% | 38% | 84% | –
15 | CCN(CCCCO)C(=O)c1ccc(Nc2nc(N)c(C(=O)c3c(F)cccc3F)s2)cc1 [Example G385] | −1% | 1% | 28% | 50% | –
16 | CSCCC(CO)NC(=O)c1ccc(Nc2nc(N)c(C(=O)c3c(F)cccc3F)s2)cc1 (stereo not drawn) [Example G386] | 12% | 19% | 28% | 51% | –
17 | CC(NC(=O)c1ccc(Nc2nc(N)c(C(=O)c3c(F)cccc3F)s2)cc1)C1CCCCC1 (stereo not drawn) [Example G388] | – | – | – | – | CDK4 % Inhibition at 0.03 μM ([3]; 0.03 µM): 8%; CDK2 % Inhibition at 0.03 μM ([4]; 0.03 µM): 3%; HCT-116 % Inhibition at 0.1 μM ([5]; 0.1 µM): 9%; HCT-116 % Inhibition at 0.25 μM ([5]; 0.25 µM): 45%
18 | Nc1nc(Nc2ccc(C(=O)NCC(O)c3ccccc3)cc2)sc1C(=O)c1c(F)cccc1F (stereo not drawn) [Example G391] | −7% | 1% | 11% | 50% | –
19 | CCOC(CCCNC(=O)c1ccc(Nc2nc(N)c(C(=O)c3c(F)cccc3F)s2)cc1)OCC [Example G392] | −2% | 12% | 8% | 49% | –
20 | Nc1nc(Nc2ccc(C(=O)Nc3ccc(O)c(Cl)c3)cc2)sc1C(=O)c1c(F)cccc1F [Example G394] | 11% | 35% | 14% | 73% | –
21 | CN(C)CCNC(=O)c1cccc(Nc2nc(N)c(C(=O)c3c(F)cccc3F)s2)c1 [F] | – | – | – | – | Ki [3]: 140 nM; Ki [4]: 270 nM; IC50 [5]: 1800 nM
